The values below come from patent publication US20250340574A1, “MODULATORS OF CYSTIC FIBROSIS TRANSMEMBRANE CONDUCTANCE REGULATOR” (Vertex Pharmaceuticals Incorporated, priority 2022, published 2025).

Where two headings read alike, the source gives them in different places. Where only a bound is given, the exact number is not on record here.

For series [1], the target named is T1, CFTR (F508del/MF-HBE cells) (Homo sapiens, UniProt P13569, DEL508-508).
T1 construct: human bronchial epithelial (HBE) cells derived from CF subjects heterozygous for F508del and a minimal function CFTR mutation (F508del/MF-HBE); endogenous in cells; host or cells: Primary human bronchial epithelial cells from CF subjects (F508del/MF genotype), differentiated at an air-liquid interface
T1 sequence (P13569 with tags, fused parts or gaps DEL508-508): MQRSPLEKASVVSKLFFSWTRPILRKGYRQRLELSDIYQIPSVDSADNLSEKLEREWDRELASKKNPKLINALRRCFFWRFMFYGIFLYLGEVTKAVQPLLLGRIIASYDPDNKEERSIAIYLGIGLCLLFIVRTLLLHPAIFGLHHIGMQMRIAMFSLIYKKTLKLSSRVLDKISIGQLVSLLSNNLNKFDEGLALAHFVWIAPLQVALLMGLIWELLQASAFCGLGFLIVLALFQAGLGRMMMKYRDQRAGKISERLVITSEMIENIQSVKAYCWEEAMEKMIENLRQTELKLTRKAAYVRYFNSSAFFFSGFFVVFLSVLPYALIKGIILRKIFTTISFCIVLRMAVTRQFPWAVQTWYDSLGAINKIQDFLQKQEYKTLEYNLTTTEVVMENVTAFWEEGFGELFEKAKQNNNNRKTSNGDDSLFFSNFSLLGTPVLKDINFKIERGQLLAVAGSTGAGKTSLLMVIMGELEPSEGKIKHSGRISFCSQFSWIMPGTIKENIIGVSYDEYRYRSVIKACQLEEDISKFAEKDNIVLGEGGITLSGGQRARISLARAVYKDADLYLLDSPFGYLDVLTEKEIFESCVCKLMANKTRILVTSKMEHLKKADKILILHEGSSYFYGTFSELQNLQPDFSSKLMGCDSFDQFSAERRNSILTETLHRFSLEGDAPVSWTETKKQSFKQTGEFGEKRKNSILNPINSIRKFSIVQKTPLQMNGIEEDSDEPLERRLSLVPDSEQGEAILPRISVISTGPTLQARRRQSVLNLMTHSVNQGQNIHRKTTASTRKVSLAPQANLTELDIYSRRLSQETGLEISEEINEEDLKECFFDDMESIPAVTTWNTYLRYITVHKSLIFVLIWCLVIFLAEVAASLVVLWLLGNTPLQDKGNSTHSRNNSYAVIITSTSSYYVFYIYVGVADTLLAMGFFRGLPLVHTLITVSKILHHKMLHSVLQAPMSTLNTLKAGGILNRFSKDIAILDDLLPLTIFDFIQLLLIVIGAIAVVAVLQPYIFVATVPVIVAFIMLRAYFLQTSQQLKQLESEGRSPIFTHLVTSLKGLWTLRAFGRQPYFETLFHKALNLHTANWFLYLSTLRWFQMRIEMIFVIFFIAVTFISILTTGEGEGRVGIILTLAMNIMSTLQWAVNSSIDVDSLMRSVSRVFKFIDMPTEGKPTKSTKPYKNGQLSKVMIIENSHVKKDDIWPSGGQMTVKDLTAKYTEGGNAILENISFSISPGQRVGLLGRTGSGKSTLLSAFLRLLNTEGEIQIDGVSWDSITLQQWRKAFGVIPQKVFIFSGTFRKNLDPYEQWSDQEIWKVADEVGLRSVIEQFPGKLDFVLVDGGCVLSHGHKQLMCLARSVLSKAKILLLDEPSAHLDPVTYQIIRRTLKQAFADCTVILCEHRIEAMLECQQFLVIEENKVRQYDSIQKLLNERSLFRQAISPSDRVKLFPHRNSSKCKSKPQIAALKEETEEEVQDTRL
Briefly: Ussing chamber assay of CFTR-mediated short-circuit currents, Assay B (0.00001 μM to 25 μM, 12 concentrations). Particulars: with 33 nM potentiator and 18 μM Tezacaftor, 20% human serum; for Emax: 18-24 hours, read-out: B Max activity (%). It is filed as cell-based. How it is done: Ussing chamber experiments were performed using human bronchial epithelial (HBE) cells derived from CF subjects heterozygous for F508del and a minimal function CFTR mutation (F508del/MF-HBE) and cultured as previously described (Neuberger T, Burton B, Clark H, Van Goor F Methods Mol Biol 2011:741:39-54). After four days the apical media was removed, and the cells were grown at an air liquid interface for >14 days prior to use.
To isolate the CFTR-mediated short-circuit (ISC) current, F508del/MF-HBE grown on Costar® Snapwell™ cell culture inserts were mounted in an Ussing chamber and the transepithelial ISC was measured under voltage-clamp recording conditions (Vhold=0 mV) at 37° C. The basolateral solution contained (in mM) 145 NaCl, 0.83 K2HPO4, 3.3 KH2PO4, 1.2 MgCl2, 1.2 CaCl2, 10 Glucose, 10 HEPES (pH adjusted to 7.4 with NaOH) and the apical solution contained (in mM) 145 NaGluconate, 1.2 MgCl2, 1.2 CaCl2, 10 glucose, 10 HEPES (pH adjusted to 7.4 with NaOH) and 30 μM amiloride to block the epithelial sodium channel. Forskolin (20 μM) was added to the apical surface to activate CFTR, followed by apical addition of a CFTR inhibitor cocktail consisting of BPO, GlyH-101, and CFTR inhibitor 172 (each at 20 μM final assay concentration) to specifically isolate CFTR currents. The CFTR-mediated ISC (μA/cm^2) for each condition was determined from the peak forskolin response to the steady-state current following inhibition.
The activity of the CFTR corrector compounds on the CFTR-mediated ISC was determined in Ussing chamber studies as described above. The F508del/MF-HBE cell cultures were either incubated with the corrector compounds at a range of concentrations in combination with 33 nM (6R,12R)-17-amino-12-methyl-6,15-bis(trifluoromethyl)-13,19-dioxa-3,4,18-triazatricyclo[12.3.1.12,5]nonadeca-1(18),2,4,14,16-pentaen-6-ol and 18 μM Tezacaftor or were incubated with the corrector compounds at a single fixed concentration of 1 μM in combination with 44 nM (6R,12R)-17-amino-12-methyl-6,15-bis(trifluoromethyl)-13,19-dioxa-3,4,18-triazatricyclo[12.3.1.12,5]nonadeca-1(18),2,4,14,16-pentaen-6-ol and 18 μM Tezacaftor for 18-24 hours at 37° C. and in the presence of 20% human serum. The concentration of corrector compounds with 44 nM or 33 nM (6R,12R)-17-amino-12-methyl-6,15-bis(trifluoromethyl)-13,19-dioxa-3,4,18-triazatricyclo[12.3.1.12,5]nonadeca-1(18),2,4,14,16-pentaen-6-ol and 18 μM Tezacaftor during the 18-24 hours incubations was kept constant throughout the Ussing chamber measurement of the CFTR-mediated ISC to ensure compounds were present throughout the entire experiment. The efficacy and potency of the putative F508del correctors was compared to that of the known Vertex corrector, (14S)-8-[3-(2-{Dispiro[2.0.2.1]heptan-7-yl}ethoxy)-1H-pyrazol-1-yl]-12,12-dimethyl-2λ^6-thia-3,9,11,18,23-pentaazatetracyclo[17.3.1.111,14.05,10]tetracosa-1(22),5,7,9,19(23),20-hexaene-2,2,4-trione, in combination with 18 μM Tezacaftor and 1 μM Ivacaftor.
• Assay A: 0.1 μM to 25 μM, 6 concentrations • Assay B: 0.00001 μM to 25 μM, 12 concentrations • Assay C: 0.026 μM to 25 μM, 6 concentrations • Assay D: Activity at single concentration of 1 μM

For series [2] the following is noted: amide bond, 13-membered ring, CDMT/NMM, DMF.
Series [3] addresses T1, CFTR (F508del/MF-HBE cells). Briefly: Ussing chamber assay of CFTR-mediated short-circuit currents, Assay A (0.1 μM to 25 μM, 6 concentrations). It is filed as cell-based. Particulars: with 33 nM potentiator and 18 μM Tezacaftor, 20% human serum; for Emax: 18-24 hours, read-out: A Max activity (%). The essentials:
(§1)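 Short-circuit current was recorded at 37 °C under voltage clamp (0 mV) with amiloride 30 μM apically, forskolin 20 μM activation, then BPO/GlyH-101/inh-172 (20 μM each) to isolate CFTR current. Before recording, corrector exposure lasted 18–24 h with 18 μM tezacaftor, 20% human serum, and 33 nM (dose–response) or 44 nM (1 μM fixed) potentiator, maintained throughout.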

Series [4] has the same target. Briefly: Ussing chamber assay of CFTR-mediated short-circuit currents, Assay C (0.026 μM to 25 μM, 6 concentrations). It is filed as cell-based. Particulars: with 33 nM potentiator and 18 μM Tezacaftor, 20% human serum. The essentials:
as §1

Series [5] has the same target. Briefly: Ussing chamber assay of CFTR-mediated short-circuit currents, Assay D (single concentration of 1 μM). Particulars: with 44 nM potentiator and 18 μM Tezacaftor, 18-24 hours, 20% human serum. Format: cell-based. The method in brief:
as §1

As a reminder, the EC50 is the concentration giving half of the maximal effect. As to `Cc1cccc(C)c1-c1cc2nc(n1)NS(=O)(=O)c1cccc(c1)C(=O)N(Cc1cnc3cn(C(C)C)nc3n1)[C@H](CC1(C)CC1)CO2` [Compound I-128, (11R)-6-(2,6-Dimethylphenyl)-12-[(2-isopropylpyrazolo[3,4-b]pyrazin-6-yl)methyl]-11-[(1-methylcyclopropyl)methyl]-2,2-dioxo-9-oxa-2λ^6-thia-3,5,12,19-tetrazatricyclo[12.3.1.14,8]nonadeca-1(18),4(19),5,7,14,16-hexaen-13-one], in series [1], the Emax was over 60% and the EC50 was 3 to 30 µM. Also, in series [2] (from Cc1cccc(C)c1-c1cc(OC[C@@H](CC2(C)CC2)NCc2cnc3cn(C(C)C)nc3n2)nc(NS(=O)(=O)c2cccc(C(=O)O)c2)n1, 12.0 mM, 22.5 h), the ring closure, yield after HPLC came to 38%.
`Cc1cccc(C)c1-c1cc2nc(n1)NS(=O)(=O)c1cccc(c1)C(=O)N(Cc1cnc3oc(C4(C)CC4)cc3n1)[C@H](CC1(C)CC1)CO2` [Compound I-96, (11R)-6-(2,6-dimethylphenyl)-12-[[6-(1-methylcyclopropyl)furo[2,3-b]pyrazin-2-yl]methyl]-11-[(1-methylcyclopropyl)methyl]-2,2-dioxo-9-oxa-2λ^6-thia-3,5,12,19-tetrazatricyclo[12.3.1.14,8]nonadeca-1(18),4(19),5,7,14,16-hexaen-13-one]: in series [1], the Emax was over 60% and the EC50 was in the range of 1 to 3 µM. In series [3], the Emax was over 60% and the EC50 is under 1 µM. This compound also gave a ring closure, yield after HPLC in series [2] (from Cc1cccc(C)c1-c1cc(OC[C@@H](CC2(C)CC2)NCc2cnc3oc(C4(C)CC4)cc3n2)nc(NS(=O)(=O)c2cccc(C(=O)O)c2)n1, 50.0 mM, 6.0 h) of 63%.
For `Cc1cccc(C)c1-c1cc2nc(n1)NS(=O)(=O)c1cccc(c1)C(=O)N(Cc1cnc3oc(C4CCC4)cc3n1)[C@H](CC13CC(C1)C3)CO2` [Compound I-134, (11R)-11-(1-Bicyclo[1.1.1]pentanylmethyl)-12-[(6-cyclobutylfuro[2,3-b]pyrazin-2-yl)methyl]-6-(2,6-dimethylphenyl)-2,2-dioxo-9-oxa-2λ^6-thia-3,5,12,19-tetrazatricyclo[12.3.1.14,8]nonadeca-1(18),4(19),5,7,14,16-hexaen-13-one], in series [1], the Emax was over 60% and the 50% effective concentration (EC50) was under 1 µM. This compound showed a ring closure, yield after HPLC in series [2] (from Cc1cccc(C)c1-c1cc(OC[C@@H](CC23CC(C2)C3)NCc2cnc3oc(C4CCC4)cc3n2)nc(NS(=O)(=O)c2cccc(C(=O)O)c2)n1, 28.4 mM, 2.0 h) of 91%.
Regarding `Cc1cccc(C)c1-c1cc2nc(n1)NS(=O)(=O)c1cccc(c1)C(=O)N(Cc1cnc3oc(C(C)C)c(C)c3n1)[C@H](CC13CC(C1)C3)CO2` [Compound I-62, (11R)-11-(1-bicyclo[1.1.1]pentanylmethyl)-6-(2,6-dimethylphenyl)-12-[(6-isopropyl-7-methyl-furo[2,3-b]pyrazin-2-yl)methyl]-2,2-dioxo-9-oxa-2λ^6-thia-3,5,12,19-tetrazatricyclo[12.3.1.14,8]nonadeca-1(18),4(19),5,7,14,16-hexaen-13-one], in series [3], the Emax was over 60% and the EC50 was under 1 µM. The same compound yielded a ring closure, yield after HPLC in series [2] (from Cc1cccc(C)c1-c1cc(OC[C@@H](CC23CC(C2)C3)NCc2cnc3oc(C(C)C)c(C)c3n2)nc(NS(=O)(=O)c2cccc(C(=O)O)c2)n1, 39.5 mM, 14.0 h) of 70%.
Regarding `Cc1cccc(C)c1-c1cc2nc(n1)NS(=O)(=O)c1cccc(c1)C(=O)N(Cc1nc3c(cc1F)cc(C(C)C)n3C)[C@H](CC13CC(C1)C3)CO2` [Compound I-87, (11R)-11-(1-bicyclo[1.1.1]pentanylmethyl)-6-(2,6-dimethylphenyl)-12-[(5-fluoro-2-isopropyl-1-methyl-pyrrolo[2,3-b]pyridin-6-yl)methyl]-2,2-dioxo-9-oxa-2λ^6-thia-3,5,12,19-tetrazatricyclo[12.3.1.14,8]nonadeca-1(18),4(19),5,7,14,16-hexaen-13-one], in series [3], the Emax was over 60% and the 50% effective concentration (EC50) was under 1 µM. The same compound registered a ring closure, yield after HPLC in series [2] (from Cc1cccc(C)c1-c1cc(OC[C@@H](CC23CC(C2)C3)NCc2nc3c(cc2F)cc(C(C)C)n3C)nc(NS(=O)(=O)c2cccc(C(=O)O)c2)n1, 10.7 mM, 24.5 h) of 39%.
Take `Cc1cccc(C)c1-c1nc2nc(c1C)OC[C@@H](CC(C)(C)C)N(Cc1cnc3cc(C(C)(C)C)n(C)c3n1)C(=O)c1cccc(c1)S(=O)(=O)N2` [Compound I-188, (11R)-12-[(6-tert-Butyl-5-methyl-pyrrolo[2,3-b]pyrazin-3-yl)methyl]-6-(2,6-dimethylphenyl)-11-(2,2-dimethylpropyl)-7-methyl-2,2-dioxo-9-oxa-2λ^6-thia-3,5,12,19-tetrazatricyclo[12.3.1.14,8]nonadeca-1(18),4(19),5,7,14,16-hexaen-13-one]: the Emax in series [1] was over 60%; in series [4] (18-24 hours, read-out: C Max activity (%)), over 60%. Besides, the EC50 in series [1] and in series [4] was under 1 µM throughout. In addition, the “D activity at 1 μM (%)” value in series [5] is “+++ (+++ is >60%)”. In series [2] (from Cc1cccc(C)c1-c1nc(NS(=O)(=O)c2cccc(C(=O)O)c2)nc(OC[C@@H](CC(C)(C)C)NCc2cnc3cc(C(C)(C)C)n(C)c3n2)c1C, 19.8 mM, 4.0 h), this compound returned a ring closure, yield after HPLC of 57%.
Turning to `Cc1cccc(C)c1-c1cc2nc(n1)NS(=O)(=O)c1cccc(c1)C(=O)N(Cc1cnc3oc(C4CC4)cc3n1)[C@H](CC1(F)CCC1)CO2` [Compound I-123, (11R)-12-[(6-cyclopropylfuro[2,3-b]pyrazin-2-yl)methyl]-6-(2,6-dimethylphenyl)-11-[(1-fluorocyclobutyl)methyl]-2,2-dioxo-9-oxa-2λ^6-thia-3,5,12,19-tetrazatricyclo[12.3.1.14,8]nonadeca-1(18),4(19),5,7,14,16-hexaen-13-one], in series [1], the Emax was over 60% and the EC50 lay in the range of 3 to 30 µM. Further, the ring closure, yield after HPLC in series [2] (from Cc1cccc(C)c1-c1cc(OC[C@@H](CC2(F)CCC2)NCc2cnc3oc(C4CC4)cc3n2)nc(NS(=O)(=O)c2cccc(C(=O)O)c2)n1, 27.1 mM, 2.08 h) was 53%.
